Structures are written as SMILES. Where a name gives a salt, the structure may show the parent alone.

Among the data in patent publication US8153631B2, “Triazole compounds and uses related thereto” (Amgen Inc., priority 2003, dated 2012) are IC50 values, retold here.

The target of this experiment is T1, human HSD1 (recombinant HSD1) (Homo sapiens, UniProt P28845).
T1 construct: made in house
T1 sequence (P28845 whole entry): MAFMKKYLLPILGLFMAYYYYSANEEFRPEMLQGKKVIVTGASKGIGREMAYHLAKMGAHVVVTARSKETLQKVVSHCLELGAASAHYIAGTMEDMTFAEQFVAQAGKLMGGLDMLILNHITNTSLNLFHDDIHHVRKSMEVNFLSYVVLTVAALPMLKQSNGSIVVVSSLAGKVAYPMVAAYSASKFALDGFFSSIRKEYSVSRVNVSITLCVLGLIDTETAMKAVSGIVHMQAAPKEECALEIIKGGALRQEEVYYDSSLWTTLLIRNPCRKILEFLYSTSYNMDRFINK
The experiment is described as follows: In vitro HSD1 activity inhibitory action, SPA of cortisone to cortisol conversion. Conditions: recombinant human HSD1 0.1 μg/ml, 500 μM NADPH, 16 nM 3H cortisone, room temperature 90 min, read-out: hHSD1 IC50. It is filed as biochemical. The procedure: In Vitro HSD1 (Hydroxysteroid Dehydrogenase 1) Activity Inhibitory Action
The HSD1 inhibitory activity was examined by quantitative determination by an SPA (scintillation proximity assay) system of the suppressive action on the conversion from cortisone to cortisol using human HSD1 (hereinafter recombinant HSD1) expressed using a baculo-virus system as an enzyme source. For the reaction, a reagent was added to a 96 well plate (96 well Opti-plates™-96 (Packard)) to the following final concentration and a volume of 100 μl was reacted at room temperature for 90 min. The reaction solution used was 0.1 μg/ml recombinant HSD1, 500 μM NADPH, 16 nM ^3H cortisone (Amersham Biosciences, 1.78 Tbq/mol) dissolved in 0.1% BSA (Sigma)-containing PBS and the test drug was 2 μl of a compound solution (dissolved in DMSO). After 90 min, the reaction was stopped by adding PBS (40 μl, containing 0.1% BSA (Sigma)) containing 0.08 μg of anti-cortisol mouse monoclonal antibody (East Coast Biologics), 365 μg SPA PVT mouse antibody-binding beads (Amersham Biosciences) and 175 μM carbenoxolone (Sigma) to the reaction solution. After the completion of the reaction, the plate was incubated overnight at room temperature and the radioactivity was measured by Topcount (Packard). For control, the value (0% inhibition) of the well containing 2 μl of DMSO instead of the test drug was used, and for positive control, the value (100% inhibition) of the well containing carbenoxolone instead of the test drug at the final concentration of 50 μM was used. The inhibition (%) of the test drug was calculated by ((value of control−value of test drug)/(value of control−value of positive control))×100 (%). The IC50 value was analyzed using a computer-based curve fitting soft.
As usually defined, the IC50 is the point on the concentration scale where inhibition reaches its midpoint. Regarding `Cn1c(C2CCN(c3c(Cl)cncc3Cl)CC2)nnc1C1(c2ccc(Cl)cc2)CC1` [Ex. 1-1, 3′,5′-dichloro-4-(5-(1-(4-chlorophenyl)cyclopropyl)-4-methyl-4H-[1,2,4]triazol-3-yl)-3,4,5,6-tetrahydro-2H-[1,4′]bipyridyl hydrochloride], the 50% inhibitory concentration (IC50) lay within 10 to 1000 nM.

As for `Cn1c(C2CCN(c3ncccc3Cl)CC2)nnc1C1(c2ccccc2)CCCC1` [Ex. 1-2], the IC50 was below 10 nM.

With `CC(=O)N1CCC(c2nnc(C3(c4ccccc4)CC3)n2C)CC1` [Ex. 1-4], the IC50 lay in the range of 10 to 1000 nM.

Take `OCCn1c(C2CCN(c3c(Cl)cncc3Cl)CC2)nnc1C1(c2ccccc2)CC1` [Ex. 1-5]: the IC50 was below 10 nM.

Consider `NCCn1c(C2CCN(c3c(Cl)cncc3Cl)CC2)nnc1C1(c2ccccc2)CC1` [Ex. 1-6], for which the IC50 was 10 to 1000 nM.

As for `CC(=O)NCCn1c(C2CCN(c3c(Cl)cncc3Cl)CC2)nnc1C1(c2ccccc2)CC1` [Ex. 1-7], the IC50 lay within 10 to 1000 nM.

Regarding `COC(=O)CCn1c(C2CCN(c3c(Cl)cncc3Cl)CC2)nnc1C1(c2ccccc2)CC1` [Ex. 1-8], the IC50 is below 10 nM.

As for `CNC(=O)CCn1c(C2CCN(c3c(Cl)cncc3Cl)CC2)nnc1C1(c2ccccc2)CC1` [Ex. 1-10], the IC50 fell in the range of 10 to 1000 nM.

Consider `Cn1c(C2(c3ccccc3)CC2)nnc1[C@H]1CC[C@H](Oc2ccc(Cl)cc2Cl)CC1` [Ex. 1-11], for which the 50% inhibitory concentration (IC50) lay within 10 to 1000 nM.

Consider `Cn1c(C2CCN(Cc3ccc(Cl)cc3Cl)CC2)nnc1C1(c2ccccc2)CC1` [Ex. 1-12], for which the IC50 was in the range of 10 to 1000 nM.

As to `Cn1c(C2CCN(c3c(Cl)cncc3Cl)CC2)nnc1C1(c2ccccc2)CCCC1` [Ex. 1-13], the IC50 was below 10 nM.

In the case of `Cn1c(C2CCN(c3ncccc3Cl)CC2)nnc1C1(c2ccccc2)CC1` [Ex. 1-14], the 50% inhibitory concentration (IC50) was below 10 nM.

Take `Cn1c(C2CCN(c3c(Cl)cncc3Cl)CC2)nnc1C1(c2ccccc2)CC1` [Ex. 1-15]: the IC50 was below 10 nM.

Consider `Cn1c(C2CCN(c3c(Cl)cncc3Cl)CC2)nnc1C1(c2ccccc2)CCNCC1` [Ex. 1-16], for which the IC50 is 10 to 1000 nM.

For `Cn1c(-c2ccc(Cl)cc2Cl)nnc1C1(c2ccccc2)CC1` [Ex. 1-18], the IC50 is below 10 nM.

Turning to `Cn1c(-c2ccc([N+](=O)[O-])cc2Cl)nnc1C1(c2ccccc2)CC1` [Ex. 1-20], the 50% inhibitory concentration (IC50) was below 10 nM.

On to `CC(=O)Nc1ccc(-c2nnc(C3(c4ccccc4)CC3)n2C)c(Cl)c1` [Ex. 1-21], for which the IC50 is below 10 nM.

For the molecule `Cn1c(-c2ccc(NS(C)(=O)=O)cc2Cl)nnc1C1(c2ccccc2)CC1` [Ex. 1-22], the half-inhibitory concentration (IC50) was below 10 nM.

Take `Cn1c(-c2ccc(NC(=O)CO)cc2Cl)nnc1C1(c2ccccc2)CC1` [Ex. 1-23]: the IC50 was below 10 nM.

As for `COCC(=O)Nc1ccc(-c2nnc(C3(c4ccccc4)CC3)n2C)c(Cl)c1` [Ex. 1-24], the IC50 is below 10 nM.

`CN(C)CC(=O)Nc1ccc(-c2nnc(C3(c4ccccc4)CC3)n2C)c(Cl)c1` [Ex. 1-25]: the IC50 is below 10 nM.

Regarding `Cn1c(-c2ccc(N)cc2Cl)nnc1C1(c2ccccc2)CC1` [Ex. 1-26], the IC50 is below 10 nM.

Consider `Cn1c(-c2ccc(N3CCCC3=O)cc2Cl)nnc1C1(c2ccccc2)CC1` [Ex. 1-27], for which the IC50 fell in the range of 10 to 1000 nM.

`CCCC(=O)Nc1ccc(-c2nnc(C3(c4ccccc4)CC3)n2C)c(Cl)c1` [Ex. 1-28]: the IC50 is below 10 nM.

As for `CC(C)C(=O)Nc1ccc(-c2nnc(C3(c4ccccc4)CC3)n2C)c(Cl)c1` [Ex. 1-29], the IC50 is below 10 nM.

Consider `Cn1c(-c2ccc(NC(=O)N3CCOCC3)cc2Cl)nnc1C1(c2ccccc2)CC1` [Ex. 1-30], for which the IC50 is below 10 nM.

With `Cn1c(-c2ccc(NC(=O)CN3CCOCC3)cc2Cl)nnc1C1(c2ccccc2)CC1` [Ex. 1-31], the IC50 was below 10 nM.

For `Cn1c(-c2ccc(NC3CCN(C(=O)OC(C)(C)C)CC3)cc2Cl)nnc1C1(c2ccccc2)CC1` [Ex. 1-32], the IC50 is below 10 nM.

For the molecule `CN(C)C(=O)Nc1ccc(-c2nnc(C3(c4ccccc4)CC3)n2C)c(Cl)c1` [Ex. 1-33], the IC50 was in the range of 10 to 1000 nM.

Regarding `Cn1c(-c2ccc(NS(N)(=O)=O)cc2Cl)nnc1C1(c2ccccc2)CC1` [Ex. 1-34], the IC50 is below 10 nM.

`Cn1c(-c2ccc(NC(N)=O)cc2Cl)nnc1C1(c2ccccc2)CC1` [Ex. 1-35]: the IC50 is below 10 nM.

With `Cn1c(-c2ccc(N3CCOC3=O)cc2Cl)nnc1C1(c2ccccc2)CC1` [Ex. 1-36], the IC50 is below 10 nM.

With `CCOC(=O)Nc1ccc(-c2nnc(C3(c4ccccc4)CC3)n2C)c(Cl)c1` [Ex. 1-38], the IC50 was below 10 nM.

With `Cn1c(-c2ccc(N3CCNC3=O)cc2Cl)nnc1C1(c2ccccc2)CC1` [Ex. 1-39], the IC50 was below 10 nM.

Take `COC1CCN(C(=O)Nc2ccc(-c3nnc(C4(c5ccccc5)CC4)n3C)c(Cl)c2)CC1` [Ex. 1-40]: the IC50 was in the range of 10 to 1000 nM.

Consider `Cn1c(-c2ccc(NC(=O)N3CCCC(O)C3)cc2Cl)nnc1C1(c2ccccc2)CC1` (stereo not shown) [Ex. 1-41], for which the IC50 was in the range of 10 to 1000 nM.

`Cn1c(-c2ccc(NC(=O)N3CCC(O)CC3)cc2Cl)nnc1C1(c2ccccc2)CC1` [Ex. 1-42]: the IC50 was in the range of 10 to 1000 nM.

As for `Cn1c(-c2ccc(NC(=O)CN3CCC(O)CC3)cc2Cl)nnc1C1(c2ccccc2)CC1` [Ex. 1-43], the IC50 fell in the range of 10 to 1000 nM.

In the case of `Cn1c(-c2ccc(NC(=O)CN3CCCC(O)C3)cc2Cl)nnc1C1(c2ccccc2)CC1` (stereo not shown) [Ex. 1-44], the half-maximal inhibitory concentration (IC50) is 10 to 1000 nM.

As for `COC1CCN(CC(=O)Nc2ccc(-c3nnc(C4(c5ccccc5)CC4)n3C)c(Cl)c2)CC1` [Ex. 1-45], the IC50 is 10 to 1000 nM.

Take `Cn1c(-c2ccc(N3CCOCC3)cc2)nnc1C1(c2ccccc2)CC1` [Ex. 1-46]: the IC50 is 10 to 1000 nM.

On to `CC(=O)Nc1ccc(-c2nnc(C3(c4ccc(F)cc4)CC3)n2C)c(Cl)c1` [Ex. 1-47], for which the 50% inhibitory concentration (IC50) is below 10 nM.

Take `Cn1c(-c2ccc(N3CCNCC3)cc2Cl)nnc1C1(c2ccccc2)CC1` [Ex. 1-48]: the half-inhibitory concentration (IC50) was in the range of 10 to 1000 nM.

On to `CC(=O)N1CCN(c2ccc(-c3nnc(C4(c5ccccc5)CC4)n3C)c(Cl)c2)CC1` [Ex. 1-49], for which the IC50 was below 10 nM.

Regarding `Cn1c(-c2ccc(N3CCN(S(C)(=O)=O)CC3)cc2Cl)nnc1C1(c2ccccc2)CC1` [Ex. 1-50], the IC50 was below 10 nM.

Consider `CC(C)C(=O)N1CCN(c2ccc(-c3nnc(C4(c5ccccc5)CC4)n3C)c(Cl)c2)CC1` [Ex. 1-51], for which the IC50 is below 10 nM.

For `Cn1c(-c2ccc(N3CCCCC3)cc2Cl)nnc1C1(c2ccccc2)CC1` [Ex. 1-53], the IC50 was below 10 nM.

Take `Cn1c(-c2ccc(N3CCC(O)CC3)cc2Cl)nnc1C1(c2ccccc2)CC1` [Ex. 1-54]: the IC50 is below 10 nM.

As to `Cn1c(-c2ccc(N3CCOCC3)cc2Cl)nnc1C1(c2ccc(F)cc2)CC1` [Ex. 1-55], the IC50 is below 10 nM.

In the case of `CC1CCN(c2ccc(-c3nnc(C4(c5ccccc5)CC4)n3C)c(Cl)c2)CC1` [Ex. 1-56], the IC50 was below 10 nM.

In the case of `Cn1c(-c2ccc(N3CCCC3)cc2Cl)nnc1C1(c2ccccc2)CC1` [Ex. 1-57], the IC50 is below 10 nM.

Consider `COC(=O)C1CCN(c2ccc(-c3nnc(C4(c5ccccc5)CC4)n3C)c(Cl)c2)CC1` [Ex. 1-58], for which the IC50 was below 10 nM.

Regarding `Cn1c(-c2ccc(N3CCC(C(=O)O)CC3)cc2Cl)nnc1C1(c2ccccc2)CC1` [Ex. 1-59], the half-inhibitory concentration (IC50) fell in the range of 10 to 1000 nM.

Take `CNC(=O)C1CCN(c2ccc(-c3nnc(C4(c5ccccc5)CC4)n3C)c(Cl)c2)CC1` [Ex. 1-60]: the IC50 is below 10 nM.

Turning to `Cn1c(-c2ccc(N3CCC4(CC3)OCCO4)cc2Cl)nnc1C1(c2ccccc2)CC1` [Ex. 1-61], the IC50 lay in the range of 10 to 1000 nM.

Regarding `COCCOC(=O)C1CCN(c2ccc(-c3nnc(C4(c5ccccc5)CC4)n3C)c(Cl)c2)CC1` [Ex. 1-62], the IC50 was below 10 nM.

As to `Cn1c(-c2ccc(N3CCC(NC(=O)OC(C)(C)C)CC3)cc2Cl)nnc1C1(c2ccccc2)CC1` [Ex. 1-63], the IC50 was below 10 nM.

With `Cn1c(-c2ccc(N3CCC(N)CC3)cc2Cl)nnc1C1(c2ccccc2)CC1` [Ex. 1-64], the IC50 was 10 to 1000 nM.

For `Cn1c(-c2ccc(N3CCCC(O)C3)cc2Cl)nnc1C1(c2ccccc2)CC1` (stereo not shown) [Ex. 1-66], the IC50 was below 10 nM.

With `COc1ccc(COc2ccc(-c3nnc(C4(c5ccccc5)CC4)n3C)c(Cl)c2)cc1` [Ex. 1-67], the IC50 was below 10 nM.

On to `Cn1c(-c2ccc(O)cc2Cl)nnc1C1(c2ccccc2)CC1` [Ex. 1-68], for which the IC50 was below 10 nM.

As to `Cn1c(-c2ccc(OCC(N)=O)cc2Cl)nnc1C1(c2ccccc2)CC1` [Ex. 1-69], the IC50 is below 10 nM.

As to `COC(=O)c1ccc(-c2nnc(C3(c4ccccc4)CC3)n2C)c(Cl)c1` [Ex. 1-70], the half-inhibitory concentration (IC50) is below 10 nM.

`Cn1c(-c2ccc(S(C)(=O)=O)cc2Cl)nnc1C1(c2ccccc2)CC1` [Ex. 1-71]: the IC50 is below 10 nM.

As to `Cn1c(-c2ccc(C(=O)O)cc2Cl)nnc1C1(c2ccccc2)CC1` [Ex. 1-72], the IC50 was in the range of 10 to 1000 nM.

Take `Cn1c(-c2ccc(C(N)=O)cc2Cl)nnc1C1(c2ccccc2)CC1` [Ex. 1-73]: the IC50 is below 10 nM.

Turning to `Cn1c(-c2ccc(C(=O)N3CCOCC3)cc2Cl)nnc1C1(c2ccccc2)CC1` [Ex. 1-74], the IC50 was in the range of 10 to 1000 nM.
